This is an account of results in patent publication US8106031B2, “Hydrolytically-resistant boron-containing therapeutics and methods of use” (Anacor Pharmaceuticals, Inc., priority 2006, dated 2012).

One data set concerns Cryptococcus neoformans. As to the kind of experiment: MIC against C. neoformans (NCCLS broth dilution). In kind it is cell-based. Particulars: for MIC: Cryptococcus neoformans, read-out: Minimum inhibitory concentration, C. neoformans. The text has this: (§1) To determine the antifungal activity of these compounds we screened for their minimum inhibitory concentrations (MIC) against the major dermatophytes that cause onychomycosis, T. rubrum and T. mentagrophytes, and against the yeasts and molds C. albicans, C. neoformans and A. fumigatus to test for their broad spectrum activity. The antifungal agent ciclopirox, currently in use for the topical treatment of onychomycosis, was used as a reference.
(§2) All MIC testing against Trichophyton rubrum, Trichophyton mentagrophytes, Candida albicans, Cryptococcus neoformans and Aspergillus fumigatus were determined following the National Committee for Clinical Laboratory Standards (NCCLS) guidelines for antimicrobial testing of yeasts and filamentous fungi.^i,ii
(§3) Two-fold serial dilutions of the test compounds were prepared in 96-well plates. […] Pfaller M A, Chaturvedi V, Espinel-Ingroff A, Ghannoum M A, Gosey L L, Odds F C, Rex J H, Rinaldi M G, Sheehan D J, Walsh T J, Warnock D W. NCCLS publication M27-A2—Reference Method for Broth Dilution Antifungal Susceptibility Testing of Yeasts; Approved Standard—Second Edition. […] Pfaller M A, Chaturvedi V, Espinel-Ingroff A, Ghannoum M A, Gosey L L, Odds F C, Rex J H, Rinaldi M G, Sheehan D J, Walsh T J, Warnock D W. NCCLS publication M38-A—Reference Method for Broth Dilution Antifungal Susceptibility Testing of Filamentous Fungi; Approved Standard.

A further data set deals with Aspergillus fumigatus. As to the kind of experiment: MIC against A. fumigatus (NCCLS broth dilution). The class given is cell-based. To be noted: for MIC: Aspergillus fumigatus, read-out: Minimum inhibitory concentration, A. fumigatus.
Excerpt: as §1, §2, §3

For the next data set, the system named is Candida albicans. In words: MIC against C. albicans (NCCLS broth dilution). The class given is cell-based. Particulars: for MIC: Candida albicans, read-out: Minimum inhibitory concentration, C. albicans.
Excerpt: as §1, §2, §3

In the next data set the test system is Trichophyton rubrum. In words: MIC against T. rubrum (NCCLS broth dilution). In kind it is cell-based. Particulars: for MIC: Trichophyton rubrum, read-out: Minimum inhibitory concentration, T. rubrum.
Excerpt: as §1, §2, §3

Data set [1] deals with Trichophyton mentagrophytes. In words: MIC against T. mentagrophytes (NCCLS broth dilution). In kind it is cell-based. To be noted: for MIC: Trichophyton mentagrophytes, read-out: Minimum inhibitory concentration, T. mentagrophytes.
Excerpt: as §1, §2, §3

Where [2] appears, read: Table 1, over 90% reduction of growth, 24-168 h at 35° C.

Values after ≈ are worked out from the molar mass of the structure shown. Like-named read-outs stand apart in the source and are kept apart here.

Turning to `Fc1ccc2c(c1)COB2c1ccsc1` [compound 13, 1,3-Dihydro-5-fluoro-1-(thiophen-3-yl)-2,1-benzoxaborole], the melting point lay within 33 to 35 °C. In addition, the MIC in the data set with Cryptococcus neoformans (setting [2]) was 1 µg/mL (≈ 4.59 µM). Besides, the MIC in the data set on Aspergillus fumigatus (setting [2]) was determined as 1 µg/mL (≈ 4.59 µM). In addition, the MIC with Candida albicans (setting [2]) came out at 1 µg/mL (≈ 4.59 µM). Also, in the data set on Trichophyton rubrum (setting [2]), the MIC was determined as 1 µg/mL (≈ 4.59 µM). Also, the MIC in data set [1] (setting [2]) came out at 4 µg/mL (≈ 18.3 µM).
Take `OB1OCc2cc(F)c(F)cc21` [19k, 5,6-Difluoro-1,3-dihydro-1-hydroxy-2,1-benzoxaborolane]: in the data set with Cryptococcus neoformans (Table 3, 1-hydroxy series (19)), the “Minimum inhibitory concentration, C. neoformans” value came to 2 µg/mL (≈ 11.8 µM). Moreover, in the data set with Aspergillus fumigatus (Table 3, 1-hydroxy series (19)), the “Minimum inhibitory concentration, A. fumigatus” value is 2 µg/mL (≈ 11.8 µM). In addition, the “Minimum inhibitory concentration, C. albicans” value in the data set with Candida albicans (Table 3, 1-hydroxy series (19)) stood at 4 µg/mL (≈ 23.5 µM). The “Minimum inhibitory concentration, T. rubrum” value in the data set with Trichophyton rubrum (Table 3, 1-hydroxy series (19)) was determined as 4 µg/mL (≈ 23.5 µM). Besides, the “Minimum inhibitory concentration, T. mentagrophytes” value in data set [1] (Table 3, 1-hydroxy series (19)) came out at 4 µg/mL (≈ 23.5 µM).
Take `Cc1cccc(B2OCc3cc(F)ccc32)c1` [9i, 1,3-Dihydro-5-fluoro-1-(3-methylphenyl)-2,1-benzoxaborole]: the melting point fell in the range of 48 to 49 °C. In addition, in the data set on Cryptococcus neoformans (Table 2, 1-phenyl series (9)), the MIC worked out at 0.5 µg/mL (≈ 2.21 µM). Besides, in the data set on Aspergillus fumigatus (Table 2, 1-phenyl series (9)), the MIC turned out to be 0.5 µg/mL (≈ 2.21 µM). For the same compound, the MIC with Candida albicans (Table 2, 1-phenyl series (9)) came out at 1 µg/mL (≈ 4.42 µM). The MIC in the data set on Trichophyton rubrum (Table 2, 1-phenyl series (9)) worked out at 2 µg/mL (≈ 8.85 µM). In addition, the MIC in data set [1] (Table 2, 1-phenyl series (9)) was found to be 4 µg/mL (≈ 17.7 µM).
Take `OCc1ccc2c(c1)COB2O` [19h, 1,3-Dihydro-1-hydroxy-5-hydroxymethyl-2,1-benzoxaborole]: the MIC in the data set with Cryptococcus neoformans (Table 3, 1-hydroxy series (19)) was over 64 µg/mL; with Aspergillus fumigatus (Table 3, 1-hydroxy series (19)) it was over 64 µg/mL; in the data set with Candida albicans (Table 3, 1-hydroxy series (19)), over 64 µg/mL; in the data set on Trichophyton rubrum (Table 3, 1-hydroxy series (19)), 64 µg/mL (≈ 390 µM); in data set [1] (Table 3, 1-hydroxy series (19)) it was 32 µg/mL (≈ 195 µM).
For the compound `OB1OCc2ccccc21` [19a, 1,3-Dihydro-1-hydroxy-2,1-benzoxaborole], the MIC in the data set with Cryptococcus neoformans was 1 µg/mL (≈ 7.47 µM); in the data set with Aspergillus fumigatus, 2 µg/mL (≈ 14.9 µM); in the data set with Candida albicans, 2 µg/mL (≈ 14.9 µM); with Trichophyton rubrum, 8 µg/mL (≈ 59.7 µM); in data set [1] it was 4 µg/mL (≈ 29.9 µM).
As to `N#Cc1ccc2c(c1)COB2O` [19f, 5-Cyano-1,3-dihydro-1-hydroxy-2,1-benzoxaborolane], in the data set on Cryptococcus neoformans (Table 3, 1-hydroxy series (19)), the “Minimum inhibitory concentration, C. neoformans” value was 16 µg/mL (≈ 101 µM). Also, the “Minimum inhibitory concentration, A. fumigatus” value in the data set with Aspergillus fumigatus (Table 3, 1-hydroxy series (19)) was determined as 8 µg/mL (≈ 50.3 µM). In addition, in the data set on Candida albicans (Table 3, 1-hydroxy series (19)), the “Minimum inhibitory concentration, C. albicans” value is 16 µg/mL (≈ 101 µM). In addition, in the data set with Trichophyton rubrum (Table 3, 1-hydroxy series (19)), the “Minimum inhibitory concentration, T. rubrum” value was determined as 8 µg/mL (≈ 50.3 µM). In data set [1] (Table 3, 1-hydroxy series (19)), the “Minimum inhibitory concentration, T. mentagrophytes” value was determined as 8 µg/mL (≈ 50.3 µM).
As to `C(=Cc1ccccc1)B1OCc2ccccc21` [10a, 1,3-Dihydro-1-styryl-2,1-benzoxaborole], the melting point lay in the range of 57 to 59 °C. Besides, the MIC in the data set on Cryptococcus neoformans (setting [2]) was found to be 4 µg/mL (≈ 18.2 µM). Also, the MIC in the data set on Aspergillus fumigatus (setting [2]) was determined as 4 µg/mL (≈ 18.2 µM). Besides, the MIC with Candida albicans (setting [2]) turned out to be 2 µg/mL (≈ 9.09 µM). In addition, in the data set with Trichophyton rubrum (setting [2]), the MIC was 8 µg/mL (≈ 36.4 µM). Moreover, the MIC in data set [1] (setting [2]) came to 8 µg/mL (≈ 36.4 µM).
As for `C=CB1OCc2cc(F)ccc21` [compound 11, 1,3-Dihydro-5-fluoro-1-vinyl-2,1-benzoxaborole], the MIC in the data set with Cryptococcus neoformans (setting [2]) came out at 4 µg/mL (≈ 24.7 µM); in the data set on Aspergillus fumigatus (setting [2]) it was 2 µg/mL (≈ 12.3 µM); in the data set on Candida albicans (setting [2]), 1 µg/mL (≈ 6.17 µM); in the data set on Trichophyton rubrum (setting [2]), 4 µg/mL (≈ 24.7 µM); in data set [1] (setting [2]) it was 2 µg/mL (≈ 12.3 µM).
Turning to `Clc1cccc(B2OCc3ccccc32)c1` [9c, 1-(3-Chlorophenyl)-1,3-dihydro-2,1-benzoxaborole], the MIC was found to be 4 µg/mL (≈ 17.5 µM) in the data set with Cryptococcus neoformans (Table 2, 1-phenyl series (9)); 8 µg/mL (≈ 35 µM) in the data set on Aspergillus fumigatus (Table 2, 1-phenyl series (9)); 8 µg/mL (≈ 35 µM) in the data set on Candida albicans (Table 2, 1-phenyl series (9)); 16 µg/mL (≈ 70 µM) in the data set on Trichophyton rubrum (Table 2, 1-phenyl series (9)); 8 µg/mL (≈ 35 µM) in data set [1] (Table 2, 1-phenyl series (9)).
With `Fc1ccc(B2OCc3ccccc32)cc1` [9e, 1,3-Dihydro-1-(4-fluorophenyl)-2,1-benzoxaborole], the melting point was in the range of 53 to 55 °C. Also, the MIC with Cryptococcus neoformans (Table 2, 1-phenyl series (9)) amounted to 2 µg/mL (≈ 9.43 µM). For the same compound, in the data set on Aspergillus fumigatus (Table 2, 1-phenyl series (9)), the MIC was found to be 2 µg/mL (≈ 9.43 µM). For the same compound, the MIC with Candida albicans (Table 2, 1-phenyl series (9)) worked out at 4 µg/mL (≈ 18.9 µM). Besides, the MIC in the data set on Trichophyton rubrum (Table 2, 1-phenyl series (9)) is 8 µg/mL (≈ 37.7 µM). In addition, the MIC in data set [1] (Table 2, 1-phenyl series (9)) stood at 4 µg/mL (≈ 18.9 µM).
